This note sets out measurements from DBAASP.

Values after ≈ are worked out from the molar mass of the structure shown.

Common to all, as to test: ≥ marks a high value that may be exact or a test limit, other limits are often not marked, values filed in µg/mL are converted to µM
The subject of assay [1] is Escherichia coli MG1655.
Assay [2] relates to Bacillus subtilis ATCC 23857.
Assay [3] relates to Escherichia coli ATCC 25922.
Assay [4] relates to Staphylococcus aureus USA 100.
Assay [5] concerns Staphylococcus aureus ATCC 25923.
Assay [6] concerns Pseudomonas aeruginosa ATCC 9027.
Assay [7] relates to Klebsiella pneumoniae ATCC 700603.
Assay [8] deals with Escherichia coli.
Assay [9] has as its system Saccharomyces cerevisiae.
Assay [10] relates to Micrococcus luteus.
The subject of assay [11] is Pseudomonas aeruginosa ATCC 15692.
Assay [12] deals with Candida albicans ATCC 90028.
The test system of assay [13] is Staphylococcus aureus USA 300.
Assay [14] relates to Shigella dysenteriae.
For assay [15], the system named is Micrococcus luteus ATCC 4698.
The test system of assay [16] is Klebsiella pneumoniae.
The test system of assay [17] is Staphylococcus epidermidis.
Assay [18] deals with Staphylococcus aureus.
The test system of assay [19] is Proteus mirabilis.
The test system of assay [20] is Salmonella typhimurium.
Assay [21] deals with Pseudomonas aeruginosa.
For assay [22], the system named is Escherichia coli DH5alpha.
Assay [23] relates to Staphylococcus epidermidis ATCC 12228.
In assay [24] the test system is Staphylococcus aureus ATCC 6538.
Assay [25] relates to Bacillus subtilis.
Assay [26] has as its system Escherichia coli NCTC 10418.

Broadly, the MIC is the lowest concentration that inhibits growth of the organism. A low value points to a more susceptible organism. In the case of `CC[C@H](C)[C@H](NC(=O)[C@H](CCCCN)NC(=O)CNC(=O)[C@H](CC(C)C)NC(=O)[C@H](Cc1ccccc1)NC(=O)[C@H](CCC(N)=O)NC(=O)[C@H](Cc1ccccc1)NC(=O)[C@@H](N)C(C)C)C(=O)N[C@H](C(=O)N[C@@H](Cc1cnc[nH]1)C(=O)N[C@@H](Cc1cnc[nH]1)C(=O)N[C@H](C(=O)NCC(=O)N[C@@H](CC(N)=O)C(=O)N[C@@H](Cc1ccccc1)C(=O)N[C@H](C(=O)N[C@@H](C)C(=O)NCC(=O)N[C@@H](Cc1ccccc1)C(=O)N[C@@H](CO)C(=O)N[C@@H](Cc1cnc[nH]1)C(=O)N[C@H](C(=O)N[C@@H](Cc1ccccc1)C(N)=O)C(C)C)C(C)C)C(C)C)[C@@H](C)CC` [VFQFLGKIIHHVGNFVAGFSHVF], in assay [1], the minimal inhibitory concentration (MIC) is ≥ 128 µM.

With `CC[C@H](C)[C@H](NC(=O)CN)C(=O)N[C@H](C(=O)N[C@@H](CCCN=C(N)N)C(=O)NCC(=O)N[C@H](C(=O)N[C@H](C(=O)N[C@@H](CCCCN)C(=O)N[C@H](C(=O)N[C@H](C(=O)N[C@@H](CCCCN)C(=O)N[C@@H](CCCN=C(N)N)C(N)=O)[C@@H](C)CC)[C@@H](C)CC)[C@@H](C)CC)[C@@H](C)CC)[C@@H](C)CC` [GIIRGIIKIIKR], the values for the MIC in assay [2] and in assay [3] were 8 µM (≈ 11 µg/mL) and 64 µM (≈ 88.2 µg/mL), respectively.

In the case of `NC(=O)[C@H](CCCN=C(N)N)NC(=O)[C@H](CCC(=O)O)NC(=O)[C@H](CCCN=C(N)N)NC(=O)[C@@H](N)CCC(=O)O` [ERER], the minimal inhibitory concentration (MIC) in assay [4] was ≥ 100 µM.

As to `CC(C)C[C@H](NC(=O)[C@H](C)NC(=O)[C@H](CCCCN)NC(=O)[C@H](CC(C)C)NC(=O)[C@H](CC(N)=O)NC(=O)[C@@H](N)CC(C)C)C(=O)N[C@@H](CC(C)C)C(=O)N[C@@H](C)C(=O)N[C@H](C(=O)N[C@@H](C)C(=O)N[C@@H](CCCCN)C(=O)N[C@@H](CCCCN)C(N)=O)C(C)C` [LNLKALLAVAKK], the minimum inhibitory concentration (MIC) in [5] was > 128 µM; in [6], > 128 µM; in assay [7] it was > 128 µM; in assay [2], ≥ 128 µM; in assay [3] it was > 128 µM.

For `CC[C@H](C)[C@H](NC(=O)[C@H](CCCCN)NC(=O)[C@H](CCCCN)NC(=O)[C@H](C)NC(=O)[C@@H](NC(=O)[C@H](C)NC(=O)[C@H](CC(C)C)NC(=O)[C@H](CC(C)C)NC(=O)[C@H](CCCCN)NC(=O)[C@H](CCCCN)NC(=O)[C@H](CC(C)C)NC(=O)[C@H](CC(N)=O)NC(=O)CN)C(C)C)C(=O)N[C@@H](CC(C)C)C(N)=O` [GNLKKLLAVAKKIL], the MIC in [5] amounted to 16 µM (≈ 24.1 µg/mL); in assay [7] it was 16 µM (≈ 24.1 µg/mL); in assay [2] it was 4 µM (≈ 6.03 µg/mL); in assay [8], 4 µM (≈ 6.03 µg/mL).

As for `CC[C@H](C)[C@H](NC(=O)[C@H](CO)NC(=O)[C@H](CO)NC(=O)[C@H](C)NC(=O)[C@H](Cc1c[nH]c2ccccc12)NC(=O)CN)C(=O)NCC(=O)N[C@@H](CO)C(=O)N[C@H](C(=O)N[C@@H](CC(C)C)C(=O)NCC(=O)N[C@@H](CCCCN)C(=O)N[C@@H](Cc1ccccc1)C(=O)N[C@@H](C)C(=O)N[C@@H](CCCCN)C(=O)NCC(=O)NCC(=O)N[C@@H](C)C(=O)N[C@@H](CCC(N)=O)C(=O)N[C@@H](C)C(=O)N[C@@H](Cc1ccccc1)C(=O)N[C@@H](CC(C)C)C(=O)N[C@@H](CCC(N)=O)C(=O)N1CCC[C@H]1C(=O)N[C@@H](CCCCN)C(=O)O)[C@@H](C)CC` [GWASSIGSILGKFAKGGAQAFLQPK], the MIC is ≥ 64 µM in assay [9]; 0.5 µM (≈ 1.26 µg/mL) in [10]; ≥ 128 µM in assay [11]; > 256 µM in [5]; 32 µM (≈ 80.6 µg/mL) in assay [3].

With `CC(C)C[C@H](NC(=O)[C@H](CCCN=C(N)N)NC(=O)[C@@H](N)CC(C)C)C(=O)N[C@@H](CCCN=C(N)N)C(N)=O` [LRLR], the MIC in assay [4] is ≥ 100 µM.

As for `NCCCC[C@H](NC(=O)[C@H](Cc1c[nH]c2ccccc12)NC(=O)[C@H](CCCCN)NC(=O)[C@H](Cc1c[nH]c2ccccc12)NC(=O)[C@@H](N)CCCCN)C(=O)N[C@@H](Cc1c[nH]c2ccccc12)C(=O)O` [KWKWKW], the MIC in [12] was ≥ 100 µM; in [4], ≥ 100 µM; in [13], ≥ 100 µM; in assay [6] it was > 100 µM.

Take `NC(=O)[C@H](CCCN=C(N)N)NC(=O)[C@H](CCCN=C(N)N)NC(=O)[C@H](CCCN=C(N)N)NC(=O)[C@@H](N)CCCN=C(N)N` [RRRR]: the minimum inhibitory concentration (MIC) in assay [4] is ≥ 100 µM.

Turning to `CC[C@H](C)[C@H](NC(=O)CN)C(=O)N[C@H](C(=O)N[C@@H](C)C(=O)NCC(=O)N[C@H](C(=O)N[C@H](C(=O)N[C@@H](C)C(=O)N[C@@H](CCCCN)C(=O)N[C@H](C(=O)N[C@@H](CCCCN)C(=O)N[C@@H](CCCCN)C(N)=O)[C@@H](C)CC)[C@@H](C)CC)[C@@H](C)CC)[C@@H](C)CC` [GIIAGIIAKIKK], the values for the MIC in [2] and in assay [3] were ≥ 32 µM and > 128 µM, respectively.

Turning to `CC[C@H](C)[C@H](NC(=O)[C@H](CCCCN)NC(=O)[C@H](CCCCN)NC(=O)[C@H](C)NC(=O)[C@H](C)NC(=O)[C@H](C)NC(=O)[C@H](CC(C)C)NC(=O)[C@H](CC(C)C)NC(=O)[C@H](C)NC(=O)[C@H](CCCCN)NC(=O)[C@H](CC(C)C)NC(=O)[C@H](CC(N)=O)NC(=O)[C@@H](N)CC(C)C)C(=O)N[C@@H](CC(C)C)C(N)=O` [LNLKALLAAAKKIL], the MIC stood at 16 µM (≈ 23.7 µg/mL) in assay [5]; 16 µM (≈ 23.7 µg/mL) in [6]; 16 µM (≈ 23.7 µg/mL) in assay [7]; 8 µM (≈ 11.8 µg/mL) in assay [2]; 8 µM (≈ 11.8 µg/mL) in assay [3].

Turning to `CC(C)C[C@H](NC(=O)[C@@H](NC(=O)[C@H](CCCCN)NC(=O)[C@H](CO)NC(=O)[C@H](C)NC(=O)[C@@H](NC(=O)[C@H](CCCCN)NC(=O)[C@H](Cc1ccccc1)NC(=O)[C@H](CC(C)C)NC(=O)[C@H](C)NC(=O)CNC(=O)[C@H](CC(C)C)NC(=O)[C@@H](N)Cc1ccccc1)C(C)C)C(C)C)C(=O)O` [FLGALFKVASKVL], the MIC is 18 µM (≈ 25 µg/mL) in assay [14]; ≥ 35.9 µM in [15]; 18 µM (≈ 25 µg/mL) in assay [16]; 2.23 µM (≈ 3.1 µg/mL) in assay [17]; 2.23 µM (≈ 3.1 µg/mL) in [18]; ≥ 144 µM in assay [19]. The MIC in assay [20] was ≥ 71.8 µM; in assay [21], 71.8 µM (≈ 100 µg/mL); in assay [10] it was 4.52 µM (≈ 6.3 µg/mL); in [22], ≥ 194 µM; in assay [23], 180 µM (≈ 250 µg/mL); in assay [24] it was 71.8 µM (≈ 100 µg/mL). The MIC in [8] amounted to 18 µM (≈ 25 µg/mL); in [25] it was 8.98 µM (≈ 12.5 µg/mL).

`NCCCC[C@@H]1NC(=O)[C@H](CCCN=C(N)N)NC(=O)[C@H](CCCCN)NC(=O)[C@H](Cc2c[nH]c3ccccc23)NC(=O)[C@H](CCCCN)NC(=O)[C@H](CCCCN)NC(=O)[C@@H](N)CSSC[C@@H](C(=O)O)NC(=O)[C@H](CCCN=C(N)N)NC1=O` [CKKWKRKRC]: the MIC in assay [15] was determined as 0.6 µM (≈ 0.74 µg/mL).

Regarding `CC[C@H](C)[C@H](NC(=O)[C@H](CC(N)=O)NC(=O)[C@@H](NC(=O)[C@H](C)N)C(C)C)C(=O)N1CCC[C@H]1C(=O)N[C@@H](Cc1ccccc1)C(=O)N[C@@H](CCCCN)C(=O)N[C@H](C(=O)N[C@@H](Cc1cnc[nH]1)C(=O)N[C@@H](CC(C)C)C(=O)N[C@@H](CCCN=C(N)N)C(=O)N[C@H]1CSSC[C@@H](C(=O)O)NC(=O)[C@H](Cc2ccccc2)NC(=O)[C@H](C)NC(=O)[C@H](C)NC(=O)[C@H](CCCCN)NC1=O)C(C)C` [AVNIPFKVHLRCKAAFC], the MIC in [26] stood at 20 µM (≈ 38.3 µg/mL).
